This is an account of results in EP1623706A2 (priority 2001, dated 2002).

Like-named read-outs stand apart in the source and are kept apart here.

The test system of data set [1] is human breast carcinoma line H3396. In words: H3396 tumor cell proliferation (3H-thymidine incorporation). It is filed as cell-based. As to the method:
Primary human umbilical vein endothelial cells (HUVEC) were purchased from CLONETICS Inc. (San Diego, CA) and used at passage 2 to 3. Proliferation was measured using ^3H-thymidine incorporation in cells by pulsing twenty-four hours prior to harvesting cell cultures. The human breast carcinoma line H3396 was used to assess activity of compound on tumor cells. Cells (2 × 10^3) were plated on collagen IV coated 96 well plates. Twenty-four hours later, compounds were added at varying concentrations. After 48 hours, ^3H-thymidine was added and cells were allowed to incorporate this label over a twenty-four hour period. Cellular extracts were harvested onto glass filters and incorporated radioactivity was determined by counting in a Beta scintillation counter. The IC50, defined as the drug concentration that causes 50% inhibition of ^3H-thymidine incorporation, was extrapolated from the plotted data. Cell selective inhibition for endothelial cells by a particular compound was defined by at least a ten-fold greater inhibition of HUVEC primary cell cultures when compared to the H3396 tumor cell line.
Background: Uptake of a labelled nucleoside into DNA is a usual measure of proliferation.

Data set [2] relates to endothelial cells occurring in MATRIGEL plugs. The data set can be described thus: In vivo […] plug angiogenesis model. More on the design: species or system athymic (nu/nu) Balb/c mice. Conditions: mouse. As to the method: LX1 human lung tumor fragments that were maintained by serial subcutaneous passage in athymic (nu/nu) Balb/c mice were implanted subcutaneously as small fragments approximately 0.1 mm^3 in size. Tumor volume doubling time for this tumor in these studies was 2.8 days. When tumors reached the size range of 150-200 mm^3, liquid […] was injected subcutaneously on the side contralateral to the tumor. Treatment was initiated 24 hours later at varying doses and schedules. Prior to implanting, […] is prepared by placing solidified […] on ice overnight at 4 C in accordance with the method described by Passiniti et al. (Lab. Invest. 1992 67:519-28). At the liquid phase and while on ice, VEGF and bFGF (Peprotech, Inc. Rocky Hill, NJ) is added to the […] at final respective concentrations of 75 ng/ml and 300 ng/ml. Stock solutions of these growth factors are made fresh at 10 mg/ml in PBS. […] These plugs were then processed for paraffin embedding and sectioned at 5 µm thickness followed by staining with hematoxylin and eosin prior to quantitative analysis. The number of endothelial cells in plugs was quantitated using the IMAGEPRO PLUS software (Media Cybernetics, Inc., Silver Spring, MD) at a magnification of 20x. […]
Angiogenesis is evaluated in these plugs as the number of endothelial cells migrating into plugs from compound treated groups relative to the vehicle treated group. […]

In data set [3] the test system is human umbilical vein endothelial cell (HUVEC). In words: HUVEC proliferation (3H-thymidine incorporation). In kind it is cell-based. Conditions: second value of two separate experiments, read-out: IC50 in Cells HUVEC.
Experimental: Primary human umbilical vein endothelial cells (HUVEC) were purchased from CLONETICS Inc. (San Diego, CA) and used at passage 2 to 3. Proliferation was measured using ^3H-thymidine incorporation in cells by pulsing twenty-four hours prior to harvesting cell cultures. […] Cells (2 × 10^3) were plated on collagen IV coated 96 well plates. Twenty-four hours later, compounds were added at varying concentrations. After 48 hours, ^3H-thymidine was added and cells were allowed to incorporate this label over a twenty-four hour period. Cellular extracts were harvested onto glass filters and incorporated radioactivity was determined by counting in a Beta scintillation counter. The IC50, defined as the drug concentration that causes 50% inhibition of ^3H-thymidine incorporation, was extrapolated from the plotted data.
In data set [4] the test system is mammary 16/C murine carcinoma. The data set can be described thus: Staged subcutaneous mammary 16/C carcinoma in mice, gross log cell kill. In kind it is in vivo, C3H mice. The source says:
The final concentrations of each component of the vehicle was as follows: CREMOPHOR 10%; ethanol […]; aqueous 80%.
C3H conventional mice were purchased from Harlan-Sprague Dawley (Indianapolis, IN) and fed mouse chow and water ad libitum.
The metastatic mammary 16/C murine carcinoma was propagated biweekly in C3H mice. Experiments were initiated by subcutaneous insertion by trocar of tumor fragments.
For in vivo tumor testing, the C3H mice were implanted subcutaneously with mammary 16/C tumor fragments. All treatments were initiated on Day 10 post-tumor implant, except for an untreated control group. All groups contained 8 mice. Tumors were measured once or twice weekly and dimensions were converted to weights using the formula Weight (milligrams)= […], where a=length and b=width (in millimeters). The median time for tumors within each group of mice to reach 1 gram was determined and the delays in median time to reach 1 gram tumor target size for treated (T) versus control (C) groups was calculated. These delays in tumor growth (T-C value in days) were further converted to gross log cell kill (LCK) values using the formula T-C/(tumor volume doubling time, TVDT, of the control group) x (3.32). A LCK of greater than or equal to 1 LCK was considered an active result. Cures were assessed at the end of each experiment and defined in the absence of a tumor mass of greater than 35 milligrams. Experiments were terminated more than 10 x TVDT following the completion of all treatments.

Data set [5] deals with drug-resistant Lewis Lung carcinoma. Conditions: 170 mg/kg every 6 days versus other cyclophosphamide schedules tested (e.g. 135 mg/kg every 4 days); cited from earlier work.
The mark [6] stands for this setting: metronomic regime 20 mg/kg orally, q2dx15, cumulative dose 300 mg/kg.

Text for L2987 human lung tumors: L2987 human lung tumors were implanted and allowed to reach 50 to 100 mm^3 before drug administration.

Take `COC(=O)O[C@@]12CO[C@@H]1C[C@H](O)[C@@]1(C)C(=O)[C@H](OC(C)=O)C3=C(C)[C@@H](OC(=O)[C@H](O)[C@@H](NC(=O)OC(C)(C)C)C(C)(C)C)C[C@@](O)([C@@H](OC(=O)c4ccccc4)[C@H]21)C3(C)C` [Formula I, 3'-tert-Butyl-3'-N-tert-butyloxycarbonyl-4-deacetyl-3'-dephenyl-3'-N-debenzoyl-4-O-methoxycarbonyl-paclitaxel]: the IC50 in data set [1] (H3396, read-out: IC50 in Cells H3396, second value of two separate experiments) was found to be 3 nM. For the same molecule, the “doses lower than the maximum tolerated dose at which anti-angiogenic effects are still observed in vivo” value in data set [2] is given as “approximately 13 fold”. The weight loss entry is on record as “weight loss was also observed” with L2987 human lung tumors (60 mg/kg orally, standard schedule q2dx5 (MTD), cumulative dose 300 mg/kg) and “no weight loss was observed” in the data set with L2987 human lung tumors (setting [6]). Moreover, in the data set with L2987 human lung tumors (60 mg/kg orally, standard schedule q2dx5 (MTD), cumulative dose 300 mg/kg, compared with metronomic regime), the anti-tumor response result is recorded as “greater anti-tumor response was observed”. In addition, the tumor growth result in the data set on L2987 human lung tumors (setting [6]) was “suppressed tumor growth”.
As for `CC(=O)O[C@H]1C(=O)[C@@]2(C)[C@H]([C@H](OC(=O)c3ccccc3)[C@]3(O)C[C@H](OC(=O)[C@H](O)[C@@H](NC(=O)c4ccccc4)c4ccccc4)C(C)=C1C3(C)C)[C@]1(OC(C)=O)CO[C@@H]1C[C@@H]2O` [TAXOL, paclitaxel], the IC50 was 5 nM in data set [3] and 4 nM in data set [1] (H3396, second value of two separate experiments, read-out: IC50 in Cells H3396). The cures/total is listed as 1/8 in data set [4] (Paclitaxel 20 mg/kg/inj qd 10-14 iv, Paclitaxel 30 qd 32-36 iv, no Formula I, Day 88 post-tumor implant); 2/8 in data set [4] (Paclitaxel 30 mg/kg/inj qd 10-14 iv only, Day 60 post tumor implant); 2/8 in data set [4] (Paclitaxel 30 mg/kg/inj qd 10-14 iv, Paclitaxel 30 qd 32-36 iv, no Formula I, Day 88 post-tumor implant, listed as Paclitaxel); 2 of 8 in data set [4] (Paclitaxel 30 mg/kg/inj qd 10-14 iv, Paclitaxel 30 qd 32-36 iv, no Formula I, Day 88 post-tumor implant, listed as paclitaxel); 1/8 in data set [4] (Paclitaxel 45 mg/kg/inj qd 10-14 iv only, Day 60 post tumor implant). In data set [4] (during each of the two courses of treatment (qdx5; 10, 32, iv)), the “likely MTD regimen” value is 30 mg/kg/inj. In data set [4] (qdx5, iv, beginning on Day 10 post-tumor implant, single course), this molecule yielded an MTD regimen of 45 mg/kg/injection.
With `O=P1(N(CCCl)CCCl)NCCCO1` (stereo not shown) [cyclophosphamide], the controlling tumor growth entry in data set [5] is recorded as “more effective”.

As a reminder, the IC50 is the midpoint of a concentration-inhibition curve.
